Reference: patent US7531320B2, “Modulation of β-catenin/TCF-activated transcription” (priority 2003, dated 2009)

Experiments:
[1] = test system: c-myc; assay: Real Time RT-PCR in SW480 cells, c-myc; type: cell-based, human; conditions: 25 μM; for ΔCT c-myc: relative to β-actin
Protocol: The RNeasy Midi Kit (Qiagen) was used for RNA extraction and Real Time RT-PCR was performed according to the protocol provided with the SYBR Green PCR Master Mix Kit (Perkin Elmer Biosystems, Shelton, Conn.). The primers used for cyclin D1, axin2, hnkd, c-myc, c-jun, and fra-1 amplifications were: cyclin D1 forward primer:5′-[…]-CCTGCTG-3′ (SEQ ID NO: 32) reverse primer: 5′-[…]-3′ (SEQ ID NO: 33) leading to a product size of approximately 300 bp; axin2 forward primer: 5′-[…] GGAAA-CT-3′ (SEQ ID NO: 34) and reverse primer: 5′-[…]-GAGA-3′ (SEQ ID NO: 35); hnkd forward primer: 5′-[…] TTGCGT-3′ (SEQ ID NO: 36) and the reverse primer: 5′-[…] ACGT-3′ (SEQ ID NO: 37); c-myc forward primer: 5′-GAA-[…] CTGC-3′ (SEQ ID NO: 38) and reverse primer: 5′-[…]-G-3′ (SEQ ID NO: 39); c-jun forward primer: 5′-[…]-3′ (SEQ ID NO: 40) and reverse primer: 5′-[…]-3′ (SEQ ID NO: 41); fra-1 forward primer: 5′-ACC-[…]-[…]-3′ (SEQ ID NO: 42) and reverse primer: 5′-[…]-TT-3′ (SEQ ID NO: 43). β-actin was used for normalization. […]
1 μg of mRNA, for each time point, was subjected to Real Time RT-PCR. Expression level of endogenous cyclin D1, c-myc, fibronectin, hnkd, axin2, c-jun, and BMP-4 were measured relative to β-actin. Quantitation of The ΔCycle of Threshold (CT) values was determined by subtracting the average values of each set by the corresponding average values obtained for β-actin. […]
The cyclin D1 gene is inappropriately expressed in many different tumor types, and is known to be a direct target of the Wnt/β-catenin pathway (Shtutman et al., “The cyclin D1 gene is a target of the beta-catenin/LEF-1 pathway,” Proc. Natl. Acad. Sci. USA 96:5522-27 (1999); Tetsu et al., “Beta-catenin regulates expression of cyclin D1 in colon carcinoma cells,” Nature 398:422-26 (1999)). […] Expression level of endogenous cyclin D1, c-myc, fibronectin, hnkd, axin2, c-jun, and BMP-4 were measured relative to β-actin. Quantitation of The ΔCycle of Threshold (CT) values was determined by subtracting the average values of each set by the corresponding average values obtained for β-actin. […]

[2] = test system: HCT116 cells; assay: FACS cell cycle analysis (propidium iodide), HCT116 cells; type: cell-based, human; conditions: 25 μM, 24 hours
Protocol: FIG. 6. • A. COMPOUND 1 arrests cells in G1. FACS analysis was performed on SW480 (lower panel) and HCT116 (upper panel) cells treated for 24 hours with either COMPOUND 1 (25 μM) (right) or control (0.5% DMSO (left). 5.5×10^6 cells were fixed and stained with propidium iodide (PI). G0/G1, S, and G2/M are indicated by arrows. • B. COMPOUND 1 selectively activates caspases in colon carcinoma cell lines. SW480 and HCT116 (left graph) cells (10^5) along with the normal colonocytes, CCD18Co (right graph) were treated with either control (0.5% DMSO) or COMPOUND 1 (25 μM). 24 hours post treatment, cells were lysed and the caspase-3/7 enzymatic activities were measured. Relative fluorescence units (RFU) were calculated by subtracting the unit values of the blank (control, without cells) from the treated samples (COMPOUND 1 or control) and plotted.
For FACS analysis, approx. 5×10^6 cells from PNRI-treated or vehicle-treated were fixed with 70% chilled ethanol and stored at −20° C. for at least 30 minutes. […] 10,000 stained cells for each sample were acquired using Beckman Coulter EPICS XL-MCL Flow Cytometry and the percentage of cells in different phase of the cell cycle was determined by Expo32 ADC software (Coulter Corporation, Miami, Fla., 33196). […]

**Q.** `O=C1C(Cc2ccc(O)cc2)N2C(=O)CCN(C(=O)NCc3ccccc3)C2CN1Cc1cccc2ccccc12` (stereo not shown) [COMPOUND 1] was tested. Which “mRNA c-myc (direction)” value [1] did it give?
**A.** The value was “↑”.

**Q.** What about the ΔCT c-myc ([1]; 4 hours) of the same compound?
**A.** The ΔCT c-myc was −0.9.

**Q.** What about the ΔCT c-myc ([1]; 8 hours) of the same compound?
**A.** The ΔCT c-myc was −2.4.

**Q.** And the “Cell cycle distribution (DNA content by FACS)” value [2]?
**A.** Its value is “increased accumulation at G1/S-phase”.
